The text below walks through data of patent US20250222005A1, “METHYLENE BLUE CONTAINING COMPOUNDS FOR THE TREATMENT OF METHAEMOGLOBINAEMIA” (Wis Ta Laboratories Ltd., priority 2022, published 2025).

The target in one series is heme iron of haemoglobin (Homo sapiens, UniProt P68871+P69905). The conditions noted are these: from crystal field theory (Jorgensen); cited from earlier work.
The test system of a further series is methaemoglobin. Description: Methaemoglobin (metHb) levels by pulse oximetry in AD trial patients receiving oral LMTM. It is filed as in vivo, human. The conditions noted are these: for Methaemoglobin, mean %: Table 5A, patients with SpO2 <94% at baseline; for Methaemoglobin, mean %, post dose: 4 hours post-dose, baseline SpO2 <94%; for Methaemoglobin, mean % ± SE: Table 5B, all patients. The protocol:
(§1) Methods: Eighteen AD trial participants randomised to unit 4/75/100/125 mg doses of LMTM had SPO2 levels below 94% at baseline. Patients were routinely monitored by pulse oximetry after 4 hrs, and after 2 and 6 weeks of twice daily dosing. Computational chemistry was used to understand LMT-heme binding. The study design and results from two Phase 3, double-blind, controlled, randomised, studies of LMTM as a potential treatment for AD were described elsewhere (see “Gauthier, S., et al. “Efficacy and safety of tau-aggregation inhibitor therapy in patients with mild or moderate Alzheimer's disease: a randomised, controlled, double-blind, parallel-arm, phase 3 trial.” Lancet 2016; 388:2873-2884.” and “Wilcock, G K, et al. “Potential of low dose leuco-methylthioninium bis(hydromethanesulphonate) (LMTM) monotherapy for treatment of mild Alzheimer's disease: cohort analysis as modified primary outcome in a Phase Ill clinical trial.” Journal of Alzheimer's Disease 2017; 61:435-457.). In summary, 890 mild/moderate AD patients were randomly assigned (3:3:4) to 150 mg/day, 250 mg/day or 8 mg/day (intended as a control) for 15-months (clinicaltrials.gov NCT01689246). Similarly, 800 patients with mild AD were randomly assigned to 200 mg/day or 8 mg/day LMTM for 18-months (clinicaltrials.gov NCT01689233). In both trials, MetHb and SpO2 levels were measured by pulse oximetery (Massimo Corporation rad 57) at screening, baseline (within 1 hour prior to dosing), post-dose during the 4-hour observation, and subsequent clinic visits at 2 and 6 weeks. Statistical analyses were performed using R-version 3.5.1, employing paired samples t-tests to compare mean SpO2 and metHb levels.

In series [1] the test system is oxygen-haemoglobin dissociation curve. Description: Estimation of effect of LMT treatment on oxygen-haemoglobin dissociation curve (SpO2 to PaO2 conversion table). Details: species or system human. The settings on record: patients with mild hypoxaemia treated with LMTM; SpO2 plotted at baseline-implied PaO2.
Series [2] concerns patients with mild hypoxaemia. As to the kind of experiment: Peripheral oxygen saturation (SpO2) by pulse oximetry in AD trial patients with baseline SpO2 below 94% receiving oral LMTM. It is filed as in vivo, human. The settings on record: for Oxygen saturation, mean %: Baseline (1 hr) 92.167; for Difference in oxygen saturation with respect to baseline: pooled doses; for Oxygen saturation, mean %, post dose: 4 hours post-dose; for Change in mean SpO2 from baseline: four hours. The protocol: as §1

heme iron of haemoglobin, sequence (P69905 2-142 limits assumed): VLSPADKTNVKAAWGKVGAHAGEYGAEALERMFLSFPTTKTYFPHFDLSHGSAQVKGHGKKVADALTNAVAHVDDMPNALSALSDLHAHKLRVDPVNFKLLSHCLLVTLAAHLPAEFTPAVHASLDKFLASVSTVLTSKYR
heme iron of haemoglobin, sequence (P68871 2-147 limits assumed): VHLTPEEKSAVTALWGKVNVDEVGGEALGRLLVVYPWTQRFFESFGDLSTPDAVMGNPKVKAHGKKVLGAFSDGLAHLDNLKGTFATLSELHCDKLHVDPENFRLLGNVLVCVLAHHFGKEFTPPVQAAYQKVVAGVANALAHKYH

For the compound `CN(C)c1ccc2c(c1)Sc1cc(N(C)C)ccc1N2` [LMT, hydromethylthionine], on heme iron of haemoglobin, the “Estimated field factor of the LMT-heme interaction” value is listed as 1.2-1.5. The “Methaemoglobin, mean %” value amounted to 0.733% with methaemoglobin (LMT dose 4 mg, 4 hr, baseline 0.709); 0.732% with methaemoglobin (LMT dose 4 mg, Week 2, baseline 0.709); 0.769% with methaemoglobin (LMT dose 4 mg, Week 6, baseline 0.709); 0.781% with methaemoglobin (LMT dose 150 mg, 4 hr, baseline 0.721); 0.835% in the series on methaemoglobin (LMT dose 150 mg, Week 2, baseline 0.721); 0.888% in the series with methaemoglobin (LMT dose 150 mg, Week 6, baseline 0.721). The “Methaemoglobin, mean %” value in the series on methaemoglobin (LMT dose 200 mg, 4 hr, baseline 0.702) was 0.760%; in the series on methaemoglobin (LMT dose 200 mg, Week 2, baseline 0.702), 0.849%; with methaemoglobin (LMT dose 200 mg, Week 6, baseline 0.702), 0.873%; with methaemoglobin (LMT dose 250 mg, 4 hr, baseline 0.696), 0.758%; in the series with methaemoglobin (LMT dose 250 mg, Week 2, baseline 0.696) it was 0.845%; in the series on methaemoglobin (LMT dose 250 mg, Week 6, baseline 0.696) it was 0.858%. Also, the “Methaemoglobin, mean %, post dose” value in the series on methaemoglobin (single 4 mg dose, pre-dose 0.70) turned out to be 0.87%; with methaemoglobin (single high dose (indicated as 100 mg), pre-dose 0.90) it was 0.65%.
For the compound `CN(C)c1ccc2c(c1)Sc1cc(N(C)C)ccc1N2` [LMTM, leuco-methylthioninium bis(hydromethanesulfonate)], in series [1], the “Implied effect of treatment on the oxygen-haemoglobin dissociation curve” value is “implied left-shift”. Also, the “Enhancement of oxygen saturation” value in series [2] (patients with chronic hypoxaemia, single doses 4-125 mg and 6 weeks twice daily) was “about 3%”. For the same compound, the “Oxygen saturation, mean %” value in series [2] (pooled data all doses (8 mg/day and 150-250 mg/day), Week 2) was 95.400%; in series [2] (pooled data all doses (8 mg/day and 150-250 mg/day), Week 6), 95.571%; in series [2] (pooled data all doses, Baseline (4 hr)), 95.333%. Further, the “Difference in oxygen saturation with respect to baseline” value in series [2] (week 2, p=0.0034) is recorded as “+3.17%”; in series [2] (week 6, p=0.0005), “+3.23%”. Moreover, the “Oxygen saturation, mean %, post dose” value in series [2] (single 4 mg dose, patients with baseline SpO2 <94%, pre-dose 91.71) amounted to 95.43%; in series [2] (single high dose (75/100/125 mg indicated as 100 mg), baseline SpO2 <94%, pre-dose 92.45), 95.27%. For the same compound, the “Change in mean SpO2 from baseline” value in series [2] (single 4 mg dose, p=0.0205) was “+3.72%”; in series [2] (single high dose (75, 100 or 125 mg), p=0.0045), “+2.82%”. The “Methaemoglobin, mean % ± SE” value amounted to 0.732 ± 0.017% in the series on methaemoglobin (8 mg (per day), 4 hr, baseline 0.709 ± 0.017, p 0.09732); 0.733 ± 0.018% in the series on methaemoglobin (8 mg (per day), Week 2, baseline 0.709 ± 0.017, p 0.1326); 0.770 ± 0.019% with methaemoglobin (8 mg (per day), Week 6, baseline 0.709 ± 0.017, p 0.0006916); 0.7811 ± 0.029% in the series on methaemoglobin (150 mg (per day), 4 hr, baseline 0.721 ± 0.029, p 0.02212); 0.831 ± 0.032% in the series on methaemoglobin (150 mg (per day), Week 2, baseline 0.721 ± 0.029, p <0.0001); 0.889 ± 0.034% in the series with methaemoglobin (150 mg (per day), Week 6, baseline 0.721 ± 0.029, p <0.0001). In addition, the “Methaemoglobin, mean % ± SE” value in the series with methaemoglobin (200 mg (per day), 4 hr, baseline 0.702 ± 0.025, p 0.01967) came to 0.760 ± 0.023%; with methaemoglobin (200 mg (per day), Week 2, baseline 0.702 ± 0.025, p <0.0001), 0.849 ± 0.027%; with methaemoglobin (200 mg (per day), Week 6, baseline 0.702 ± 0.025, p <0.0001), 0.873 ± 0.030%; in the series with methaemoglobin (250 mg (per day), 4 hr, baseline 0.696 ± 0.028, p 0.005868), 0.758 ± 0.028%; in the series on methaemoglobin (250 mg (per day), Week 2, baseline 0.696 ± 0.028, p <0.0001), 0.837 ± 0.034%; with methaemoglobin (250 mg (per day), Week 6, baseline 0.696 ± 0.028, p <0.0001), 0.851 ± 0.033%. Besides, the “Difference in metHb levels between baseline and 4-hours post-dose” value in the series on methaemoglobin (both treatment groups (4 mg and high single doses), patients with baseline SpO2 <94%) was “no consistent difference”. Further, the “Effect on metHb levels over 6 weeks” value with methaemoglobin (higher doses (150, 200 and 250 mg/day), baseline SpO2 <94% subgroup, not statistically significant) was “systematically increased”.
